Test results: US20260325417A1, “TOPICAL SKIN COMPOSITION CONTAINING 1,3-PROPANEDIOL AS ACTIVE INGREDIENT FOR MAINTAINING MICROBIOME BALANCE IN SKIN” (ACTIVON CO.,LTD., priority 2022, published 2026)

Tests used:
[1] = system: S. epidermidis; assay: Comparison of diol compounds, growth of beneficial bacteria; assay type: cell-based, Staphylococcus epidermidis; parameters: key to Effect on the growth of beneficial bacteria (S. epidermidis): ++: Growth promotion; +: No effect; −: Growth inhibition; − −: 50% or more growth inhibition
Description: (§1) FIG. 4 illustrates the results of a comparative analysis of the effects of diol compounds, specifically 1,3-propanediol, 2-methyl-1,3-propanediol, 1,3-butanediol, 2,3-butanediol, 1,2-pentanediol, and 1,2-hexanediol on the growth of harmful bacteria (upper graph) and beneficial bacteria (lower graph). FIG. 4A: 1,3-propanediol, FIG. 4B: 2-methyl-1,3-propanediol; FIG. 4C: 1,3-butanediol; FIG. 4D: 2,3-butanediol; FIG. 4E: 1,2-pentanediol; FIG. 4F: 1,2-Hexanediol.
(§2) • 1) Staphylococcus epidermidis ATCC 12228 and Staphylococcus aureus ATCC 6538 strains were obtained from ThermoFisher Scientific and cultured in tryptic soy broth (culture conditions: 32° C. for 18 hours). After culturing, they were diluted with 0.85% NaCl to adjust the absorbance (600 nm) to 0.5-0.6. • 2) 1,3-propanediol was obtained from Sigma-Aldrich. • 3) 2-methyl-1,3-propanediol, 1,3-butanediol, 2,3-butanediol, 1,2-pentanediol, and 1,2-hexanediol were all obtained from Sigma-Aldrich. • 4) Fructan was obtained from Sigma-Aldrich. • 5) Yeast extract was obtained from Sigma-Aldrich.

[2] = system: S. aureus; assay: Comparison of diol compounds, growth of harmful bacteria; assay type: cell-based, Staphylococcus aureus
Description: as §1, §2

Row | Structure (SMILES) | Effect on the growth of beneficial bacteria (S. epidermidis) ([1]; diol compound 0.1 wt %) | Effect on the growth of beneficial bacteria (S. epidermidis) ([1]; diol compound 1 wt %) | Effect on the growth of beneficial bacteria (S. epidermidis) ([1]; diol compound 5 wt %) | Effect on the growth of beneficial bacteria (S. epidermidis) ([1]; diol compound 10 wt %) | Effect on the growth of beneficial bacteria (S. epidermidis) ([1]; diol compound 20 wt %) | Effect on the growth of harmful bacteria (S. aureus) ([2]; diol compound 0.1 wt %) | Effect on the growth of harmful bacteria (S. aureus) ([2]; diol compound 1 wt %) | Effect on the growth of harmful bacteria (S. aureus) ([2]; diol compound 5 wt %) | Effect on the growth of harmful bacteria (S. aureus) ([2]; diol compound 10 wt %) | Effect on the growth of harmful bacteria (S. aureus) ([2]; diol compound 20 wt %)
1 | CCCCC(O)CO (stereo not drawn) [1,2-hexanediol] | ++ | − | − − (50% or more growth inhibition) | − − (50% or more growth inhibition) | − − (50% or more growth inhibition) | + | ++ | +++ (50% or more inhibition) | +++ (50% or more inhibition) | +++ (50% or more inhibition)
2 | CCCC(O)CO (stereo not drawn) [1,2-pentanediol] | ++ | − | − − (50% or more growth inhibition) | − − (50% or more growth inhibition) | − − (50% or more growth inhibition) | + | + | +++ (50% or more inhibition) | +++ (50% or more inhibition) | +++ (50% or more inhibition)
3 | CC(O)CCO (stereo not drawn) [1,3-butanediol] | ++ | − | − | − − (50% or more growth inhibition) | − − (50% or more growth inhibition) | + | + | ++ | ++ | +++ (50% or more inhibition)
